Laboratory results published in patent US20050209157A1, “Short bioactive peptides and methods for their use” (priority 2001, published 2005).
No end group written: not given here.

How the values were obtained:
fungal = assay: Presently preferred antifungal peptides, selected from the MIC/MBC data; format: cell-based; conditions: X = preferred
Text: The peptide's “length” is the number of amino acid residues in the sequence.

[1] = tested on: Escherichia coli ATCC 25922; assay: Antimicrobial assay I, modified protocol (tryptic soy broth), MBC; conditions: minimum bactericidal concentration, Table 4
[2] = tested on: Pseudomonas aeruginosa ATCC 27853; assay: as above; conditions: minimum bactericidal concentration, Table 4
Procedure: The preparation of all media, stock solutions, and dilutions took place in a laminar flow hood to prevent contamination. Bacterial cells were freshly grown on antibiotic medium 2 agar slants (pH 7.0 at 25° C.). Bacteria were suspended and diluted in antibiotic medium 3 to about 10^4 cfu/ml and used as the inoculum. Sample solutions (100 μl/well) were added to plates according to the plate layout. Inoculum (100 μl/well) was added to achieve a final concentration of 5×10^3 cfu/ml. Negative controls received 100 μl saline and 100 μl growth medium. Positive controls received 100 μl saline and 100 μl inoculum. Bacterial plates were incubated at 37° C. for 24 hours.
However, the data for Table 4 were obtained with a modified protocol wherein the medium was tryptic soy broth, inocolum strength was approximately 10^4 CFU per ml, and values determined were minimum bactericidal concentrations (MBC) or minimum fungicidal concentrations (MFC).
MBC or MFC values are in μg/mL. E. coli is Escherichia coli ATCC accession number 25922; P. aerug is Pseudomonas aeruginosa ATCC accession number 27853, S. aur. is Stapholococcus aureus ATCC accession number 25923; Candida is Candida albicans ATCC accession number 10231.

[3] = tested on: Stapholococcus aureus ATCC 25923; assay: as above; conditions: minimum bactericidal concentration, Table 4
[4] = tested on: Candida albicans ATCC 10231; assay: Antimicrobial assay I, modified protocol (tryptic soy broth), MFC; conditions: minimum fungicidal concentration, Table 4
in vitro [5] = format: cell-based, human; conditions: human, human red blood cells, pH 7, Table 26, valine substitution; read-out: Hemolysis RBC LD50
in vitro [6] = conditions: human, WI38 normal lung fibroblast cells, WI-38 LD50, Table 26, valine substitution

Substance | Anti-fungal (preferred peptide) (fungal) | MBC E. coli A.25922 [1] | MBC P. aerug A.27853 [2] | MBC S. aur A.25923 [3] | MFC Candida A.10231 [4] | HC50 at 1 h (in vitro [5]) | CC50 at 24 h (in vitro [6])
FALALKAKKL-NH2 [compound 182] | X (Preferred antifungal peptides can be selected as having MIC or MBC values of less than or equal to about 25 μg/ml) | – | – | – | – | – | –
FALALKALKKAL-NH2 [compound 144] | X (Preferred antifungal peptides can be selected as having MIC or MBC values of less than or equal to about 25 μg/ml) | 10 mg/L | 25 mg/L | 25 mg/L | 25 mg/L | – | –
FALALKALKKLKKALKKAL-NH2 [compound 27] | X (Preferred antifungal peptides can be selected as having MIC or MBC values of less than or equal to about 25 μg/ml) | 10 mg/L | 8 mg/L | 8 mg/L | >50 mg/L | – | –
FALALKLAKKAL-NH2 [compound 167] | X (Preferred antifungal peptides can be selected as having MIC or MBC values of less than or equal to about 25 μg/ml) | 25 mg/L | >250 mg/L | 10 mg/L | 25 mg/L | – | –
FALKALKKAL-NH2 [compound 170] | X (Preferred antifungal peptides can be selected as having MIC or MBC values of less than or equal to about 25 μg/ml) | 25 mg/L | >250 mg/L | 150 mg/L | 25 mg/L | – | –
FALKALKKLKKALKKAL-NH2 [compound 153] | X (Preferred antifungal peptides can be selected as having MIC or MBC values of less than or equal to about 25 μg/ml) | 10 mg/L | 25 mg/L | 5 mg/L | 25 mg/L | – | –
FKLAFKLAKKAFL-NH2 [compound 122] | X (Preferred antifungal peptides can be selected as having MIC or MBC values of less than or equal to about 25 μg/ml) | 30 mg/L | 30 mg/L | 25 mg/L | 15 mg/L | – | –
KYKKALKKLAKLL-NH2 [compound 146] | X (Preferred antifungal peptides can be selected as having MIC or MBC values of less than or equal to about 25 μg/ml) | 10 mg/L | >250 mg/L | 75 mg/L | 10 mg/L | – | –
VALALKALKKLLKKLKKLAKKAL-NH2 [compound 510] | X (Preferred antifungal peptides can be selected as having MIC or MBC values of less than or equal to about 25 μg/ml) | – | – | – | – | 10 µg/mL | 77 mg/L
